From patent US6737383B1, “Herbicidal oxadiazolidines” (priority 1999, dated 2004)

Key:
corn = assay: Test B pre/postemergence corn; assay type: in vivo, Zea mays
Method in brief: (§1)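 Herbicidal effect was estimated by eye on a ten-point control scale after plants spent twelve to sixteen days in a greenhouse following soil or foliar treatment. Foliar sprays targeted plants at one to four leaves; all doses were formulated in a non-phytotoxic solvent with surfactant.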

rice = assay: Test B flood test rice; assay type: in vivo, Oryza sativa
Method in brief: (§2)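 Plants were grown to the 2-leaf stage before treatment with test chemical, then held in a greenhouse for twelve to sixteen days. Injury was visually rated against untreated controls on a 0–10 scale, where 0 is no effect and 10 is complete control.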

rape = assay: Test B pre/postemergence rape; assay type: in vivo, Brassica napus
Method in brief: as §1

purple nutsedge = assay: Test B pre/postemergence purple nutsedge; assay type: in vivo, Cyperus rotundus
Method in brief: as §1

crabgrass = assay: Test B pre/postemergence crabgrass; assay type: in vivo, Digitaria sanguinalis
Method in brief: as §1

morningglory = assay: Test B pre/postemergence morningglory; assay type: in vivo, Ipomoea hederacea
Method in brief: as §1

giant foxtail = assay: Test B pre/postemergence giant foxtail; assay type: in vivo, Setaria faberii
Method in brief: as §1

bedstraw = assay: Test B pre/postemergence bedstraw; assay type: in vivo, Galium aparine
Method in brief: as §1

velvetleaf = assay: Test B pre/postemergence velvetleaf; assay type: in vivo, Abutilon theophrasti
Method in brief: as §1

wheat = assay: Test B pre/postemergence wheat; assay type: in vivo, Triticum aestivum
Method in brief: as §1

pigweed = assay: Test B pre/postemergence pigweed; assay type: in vivo, Amaranthus retroflexus
Method in brief: as §1

wild oat = assay: Test B pre/postemergence wild oat; assay type: in vivo, Avena fatua
Method in brief: as §1

smallflower flatsedge = assay: Test B flood test smallflower flatsedge; assay type: in vivo, Cyperus difformis
Method in brief: as §2

duck salad = assay: Test B flood test duck salad; assay type: in vivo, Heteranthera limosa
Method in brief: as §2

soybean = assay: Test B pre/postemergence soybean; assay type: in vivo, Glycine max
Method in brief: as §1

cocklebur = assay: Test B pre/postemergence cocklebur; assay type: in vivo, Xanthium strumarium
Method in brief: as §1

[1] = Preemergence, Rate 62 g/ha, scale of 0 to 10 where 0 is no effect and 10 is complete control
[2] = Preemergence, Rate 250 g/ha, scale of 0 to 10 where 0 is no effect and 10 is complete control
[3] = Preemergence, Rate 500 g/ha, scale of 0 to 10 where 0 is no effect and 10 is complete control
[4] = Rate 62 g/ha, Postemergence, scale of 0 to 10 where 0 is no effect and 10 is complete control
[5] = Rate 125 g/ha, Postemergence, scale of 0 to 10 where 0 is no effect and 10 is complete control
[6] = Rate 125 g/ha, Preemergence, scale of 0 to 10 where 0 is no effect and 10 is complete control
[7] = Rate 250 g/ha, Postemergence, scale of 0 to 10 where 0 is no effect and 10 is complete control
[8] = Rate 500 g/ha, Postemergence, scale 0 to 10, 0 no effect, 10 complete control
[9] = Rate 62 g/ha, headed Pre-emergence (flood test species), scale 0 to 10 (0 no effect, 10 complete control)
[10] = Rate 125 g/ha, Pre-emergence, flood test species, scale 0 to 10 where 0 is no effect and 10 is complete control
[11] = Rate 250 g/ha, Pre-emergence, flood-test species, scale 0 to 10, 0 is no effect, 10 is complete control
[12] = Rate 500 g/ha, Pre-emergence, flood test species, scale 0 to 10 (0 no effect, 10 complete control)

CC(C)N(C(=O)n1oc(=O)n(C2CCCC2)c1=O)c1ccc(F)cc1 [Compound 271] was tested, and the “Corn plant response rating” value (corn; [1]) was 0, the “Corn plant response rating” value (corn; [2]) was 0 and the “Plant response rating, Corn” value (corn; [3]) was 3. The “Corn plant response rating” value (corn; [4]) was 0, the “Corn plant response rating” value (corn; [5]) was 0 and the “Corn plant response rating” value (corn; [6]) was 0. For the same compound, the “Plant response rating, Corn” value (corn; [7]) was 0, the “Corn plant response rating” value (corn; [8]) was 0 and the “Rice plant response rating” value (rice; [9]) was 0. For the same compound, the “Rice plant response rating” value (rice; [10]) was 0, the “Rice plant response rating” value (rice; [11]) was 0 and the “Rice plant response rating” value (rice; [12]) was 0. The “Rape plant response rating” value (rape; [1]) was 2, the “Rape plant response rating” value (rape; [2]) was 10 and the “Plant response rating, Rape” value (rape; [3]) was 10. The “Rape plant response rating” value (rape; [5]) was 3, the “Rape plant response rating” value (rape; [6]) was 4 and the “Plant response rating, Rape” value (rape; [7]) was 4. The “Rape plant response rating” value (rape; [8]) was 6, the “Nutsedge plant response rating” value (purple nutsedge; [1]) was 0 and the “Nutsedge plant response rating” value (purple nutsedge; [2]) was 0. The “Plant response rating, Nutsedge” value (purple nutsedge; [3]) was 0, the “Nutsedge plant response rating” value (purple nutsedge; [5]) was 0 and the “Nutsedge plant response rating” value (purple nutsedge; [6]) was 0. The “Plant response rating, Nutsedge” value (purple nutsedge; [7]) was 0, the “Nutsedge plant response rating” value (purple nutsedge; [8]) was 0 and the “Crabgrass plant response rating” value (crabgrass; [1]) was 3. The “Crabgrass plant response rating” value (crabgrass; [2]) was 7, the “Plant response rating, Crabgrass” value (crabgrass; [3]) was 8 and the “Crabgrass plant response rating” value (crabgrass; [5]) was 1. The “Crabgrass plant response rating” value (crabgrass; [6]) was 5, the “Plant response rating, Crabgrass” value (crabgrass; [7]) was 1 and the “Crabgrass plant response rating” value (crabgrass; [8]) was 5. The “Morningglory plant response rating” value (morningglory; [1]) was 1, the “Morningglory plant response rating” value (morningglory; [2]) was 2 and the “Plant response rating, Morningglory” value (morningglory; [3]) was 7. The “Morningglory plant response rating” value (morningglory; [5]) was 2, the “Morningglory plant response rating” value (morningglory; [6]) was 1 and the “Plant response rating, Morningglory” value (morningglory; [7]) was 8. The “Morningglory plant response rating” value (morningglory; [8]) was 8, the “Giant foxtail plant response rating” value (giant foxtail; [1]) was 8 and the “Giant foxtail plant response rating” value (giant foxtail; [2]) was 10. The “Plant response rating, Giant foxtail” value (giant foxtail; [3]) was 10, the “Giant foxtail plant response rating” value (giant foxtail; [5]) was 3 and the “Giant foxtail plant response rating” value (giant foxtail; [6]) was 10. The “Plant response rating, Giant foxtail” value (giant foxtail; [7]) was 4, the “Giant foxtail plant response rating” value (giant foxtail; [8]) was 7 and the “Bedstraw plant response rating” value (bedstraw; [1]) was 3. The “Bedstraw plant response rating” value (bedstraw; [2]) was 10, the “Plant response rating, Bedstraw” value (bedstraw; [3]) was 10 and the “Bedstraw plant response rating” value (bedstraw; [4]) was 4. The “Bedstraw plant response rating” value (bedstraw; [5]) was 6, the “Bedstraw plant response rating” value (bedstraw; [6]) was 10 and the “Plant response rating, Bedstraw” value (bedstraw; [7]) was 8. The “Bedstraw plant response rating” value (bedstraw; [8]) was 8, the “Velvetleaf plant response rating” value (velvetleaf; [1]) was 2 and the “Velvetleaf plant response rating” value (velvetleaf; [2]) was 7. The “Plant response rating, Velvetleaf” value (velvetleaf; [3]) was 8, the “Velvetleaf plant response rating” value (velvetleaf; [5]) was 0 and the “Velvetleaf plant response rating” value (velvetleaf; [6]) was 4. The “Plant response rating, Velvetleaf” value (velvetleaf; [7]) was 0, the “Velvetleaf plant response rating” value (velvetleaf; [8]) was 3 and the “Wheat plant response rating” value (wheat; [1]) was 0. For the same compound, the “Wheat plant response rating” value (wheat; [2]) was 0, the “Plant response rating, Wheat” value (wheat; [3]) was 3 and the “Wheat plant response rating” value (wheat; [5]) was 0. The “Wheat plant response rating” value (wheat; [6]) was 0, the “Plant response rating, Wheat” value (wheat; [7]) was 0 and the “Wheat plant response rating” value (wheat; [8]) was 0. The “Redroot pigweed plant response rating” value (pigweed; [1]) was 3, the “Redroot pigweed plant response rating” value (pigweed; [2]) was 10 and the “Plant response rating, Redroot pigweed” value (pigweed; [3]) was 10. The “Redroot pigweed plant response rating” value (pigweed; [5]) was 5, the “Redroot pigweed plant response rating” value (pigweed; [6]) was 8 and the “Plant response rating, Redroot pigweed” value (pigweed; [7]) was 7. For the same compound, the “Redroot pigweed plant response rating” value (pigweed; [8]) was 8, the “Wild oats plant response rating” value (wild oat; [1]) was 2 and the “Wild oats plant response rating” value (wild oat; [2]) was 6. The “Plant response rating, Wild oats” value (wild oat; [3]) was 8, the “Wild oats plant response rating” value (wild oat; [5]) was 0 and the “Plant response rating, Wild oats” value (wild oat; [7]) was 0. The “Wild oats plant response rating” value (wild oat; [8]) was 3, the “S. Flatsedge plant response rating” value (smallflower flatsedge; [9]) was 0 and the “S. Flatsedge plant response rating” value (smallflower flatsedge; [10]) was 0. For the same compound, the “S. Flatsedge plant response rating” value (smallflower flatsedge; [11]) was 0, the “S. Flatsedge plant response rating” value (smallflower flatsedge; [12]) was 0 and the “Ducksalad plant response rating” value (duck salad; [9]) was 0. The “Ducksalad plant response rating” value (duck salad; [10]) was 0, the “Ducksalad plant response rating” value (duck salad; [11]) was 0 and the “Ducksalad plant response rating” value (duck salad; [12]) was 0. The “Soybean plant response rating” value (soybean; [1]) was 0, the “Soybean plant response rating” value (soybean; [2]) was 0 and the “Plant response rating, Soybean” value (soybean; [3]) was 1. For the same compound, the “Soybean plant response rating” value (soybean; [5]) was 5, the “Soybean plant response rating” value (soybean; [6]) was 0 and the “Plant response rating, Soybean” value (soybean; [7]) was 5. The “Soybean plant response rating” value (soybean; [8]) was 6, the “Cocklebur plant response rating” value (cocklebur; [1]) was 0 and the “Cocklebur plant response rating” value (cocklebur; [2]) was 0. For the same compound, the “Plant response rating, Cocklebur” value (cocklebur; [3]) was 4, the “Cocklebur plant response rating” value (cocklebur; [4]) was 0 and the “Cocklebur plant response rating” value (cocklebur; [5]) was 0. The “Cocklebur plant response rating” value (cocklebur; [6]) was 0, the “Plant response rating, Cocklebur” value (cocklebur; [7]) was 1 and the “Cocklebur plant response rating” value (cocklebur; [8]) was 4.
